# How the values were obtained:
# Assay type in all cases: in vivo
# Pharbitis purpurea [1] = assay: Pre-emergence herbicidal action against PHBPU; conditions: 80 g/ha; visual score after 3 weeks vs untreated controls
# Source text: Seeds of monocotyledonous and dicotyledonous weed plants and crop plants are laid out in sandy loam soil in wood-fiber pots and covered with soil. The compounds of the invention, formulated in the form of wettable powders (WP) or as emulsion concentrates (EC), are then applied to the surface of the covering soil in the form of an aqueous suspension or emulsion at a water application rate equivalent to 600 to 800 l/ha, with addition of 0.2% wetting agent. After the treatment, the pots are placed in a greenhouse and kept under good growth conditions for the trial plants. The damage to the test plants is scored visually after a test period of 3 weeks by comparison with untreated controls (herbicidal activity in percent (%): 100% activity=the plants have died, 0% activity=like control plants). […] The tables below illustrate, in an illustrative manner, the post-emergence herbicidal action of the compounds of the invention, the herbicidal activity being stated in percent.
# Viola tricolor [2] = assay: Pre-emergence herbicidal action against VIOTR
# Outline: (§1)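 Pre-emergence soil-surface spray of formulated compound (WP or EC; 600 to 800 l/ha; 0.2% wetting agent) over seeds sown in sandy loam. After 3 weeks under greenhouse conditions, damage is estimated visually in percent against untreated plants.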
# Setaria viridis [3] = assay: Pre-emergence herbicidal action against SETVI
# Outline: as §1
# Alopecurus myosuroides [4] = assay: Pre-emergence herbicidal action against ALOMY; conditions: 80 g/ha; visual score after 3 weeks vs untreated controls
# Outline: as §1
# Veronica persica [5] = assay: Pre-emergence herbicidal action against VERPE; conditions: 80 g/ha
# Outline: as §1
# Digitaria sanguinalis = assay: Pre-emergence herbicidal action against DIGSA
# Outline: as §1
# Abutilon theophrasti [6] = assay: Pre-emergence herbicidal action against ABUTH; conditions: visual score after 3 weeks vs untreated controls
# Outline: as §1
# Veronica persica [7] = assay: Post-emergence herbicidal action against VERPE; conditions: 20 g/ha, visual assessment about 3 weeks after treatment
# Outline: (§2)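 Spray, one-leaf stage: WP or EC compound in water, 600–800 l/ha, 0.2% wetting agent. Plants held about 3 weeks in the greenhouse, then visually rated in percent of kill compared with untreated controls.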
# Avena fatua [8] = assay: Pre-emergence herbicidal action against AVEFA; conditions: 80 g/ha; visual score after 3 weeks vs untreated controls
# Outline: as §1
# Avena fatua [9] = assay: Post-emergence herbicidal action against AVEFA; conditions: 20 g/ha, visual assessment about 3 weeks after treatment
# Outline: as §2
# Setaria viridis [10] = assay: Post-emergence herbicidal action against SETVI; conditions: 20 g/ha, visual assessment about 3 weeks after treatment
# Outline: as §2
# Polygonum convolvulus = assay: Pre-emergence herbicidal action against POLCO; conditions: 80 g/ha
# Outline: as §1
# Matricaria inodora [11] = assay: Post-emergence herbicidal action against MATIN; conditions: visual assessment about 3 weeks after treatment
# Outline: as §2
# Amaranthus retroflexus [12] = assay: Pre-emergence herbicidal action against AMARE; conditions: visual score after 3 weeks vs untreated controls
# Outline: as §1
# Echinochloa crus-galli [13] = assay: Pre-emergence herbicidal action against ECHCG; conditions: 80 g/ha; visual score after 3 weeks vs untreated controls
# Outline: as §1
# Pharbitis purpurea [14] = assay: Post-emergence herbicidal action against PHBPU; conditions: visual assessment about 3 weeks after treatment
# Outline: as §2
# Abutilon theophrasti [15] = assay: Post-emergence herbicidal action against ABUTH
# Outline: as §2
# Matricaria inodora [16] = assay: Pre-emergence herbicidal action against MATIN; conditions: visual score after 3 weeks vs untreated controls
# Outline: as §1
# Echinochloa crus-galli [17] = assay: Post-emergence herbicidal action against ECHCG; conditions: 20 g/ha, visual assessment about 3 weeks after treatment
# Outline: as §2
# Viola tricolor [18] = assay: Post-emergence herbicidal action against VIOTR
# Outline: as §2
# Amaranthus retroflexus [19] = assay: Post-emergence herbicidal action against AMARE; conditions: visual assessment about 3 weeks after treatment
# Outline: as §2
# Alopecurus myosuroides [20] = assay: Post-emergence herbicidal action against ALOMY
# Outline: as §2
Compound,Pre-emergence action against PHBPU (Pharbitis purpurea [1]) [%],Pre-emergence action against VIOTR (Viola tricolor [2]; 20 g/ha) [%],Pre-emergence action against VIOTR (Viola tricolor [2]; 80 g/ha) [%],Pre-emergence action against SETVI (Setaria viridis [3]; 80 g/ha) [%],Pre-emergence action against ALOMY (Alopecurus myosuroides [4]) [%],Pre-emergence action against DIGSA (Digitaria sanguinalis; 20 g/ha) [%],Pre-emergence action against DIGSA (Digitaria sanguinalis; 80 g/ha) [%],Pre-emergence action against ABUTH (Abutilon theophrasti [6]; 80 g/ha) [%],Post-emergence action against VERPE in % (Veronica persica [7]) [%],Post-emergence action against SETVI in % (Setaria viridis [10]) [%],Pre-emergence action against POLCO (Polygonum convolvulus) [%],Post-emergence action against MATIN in % (Matricaria inodora [11]; 20 g/ha) [%],Pre-emergence action against AMARE (Amaranthus retroflexus [12]; 20 g/ha) [%],Pre-emergence action against AMARE (Amaranthus retroflexus [12]; 80 g/ha) [%],Pre-emergence action against ECHCG (Echinochloa crus-galli [13]) [%],Post-emergence action against PHBPU in % (Pharbitis purpurea [14]; 20 g/ha) [%],Post-emergence action against ABUTH (Abutilon theophrasti [15]; 5 g/ha) [%],Post-emergence action against ABUTH (Abutilon theophrasti [15]; 20 g/ha) [%],Pre-emergence action against MATIN (Matricaria inodora [16]; 20 g/ha) [%],Pre-emergence action against MATIN (Matricaria inodora [16]; 80 g/ha) [%],further results
CCn1nnnc1NC(=O)c1ccc(C(F)(F)F)c(C(=O)N(C)CC(F)F)c1Cl [Example 2-128],80,100,100,100,100,90,100,100,80,80,100,90,100,100,90,80,80,80,100,100,Pre-emergence action against VERPE (Veronica persica [5]): 100%; Pre-emergence action against AVEFA (Avena fatua [8]): 100%; Post-emergence action against AVEFA in % (Avena fatua [9]): 80%; Post-emergence action against MATIN in % (Matricaria inodora [11]; 5 g/ha): 80%; Post-emergence action against PHBPU in % (Pharbitis purpurea [14]; 5 g/ha): 80%; Post-emergence action against ECHCG in % (Echinochloa crus-galli [17]): 80%
CCN(C(=O)c1c(C(F)(F)F)ccc(C(=O)Nc2nnnn2C)c1Cl)C1CC1 [Example 1-136],90,100,100,100,100,90,100,100,80,100,80,90,90,100,90,80,90,100,90,100,Post-emergence action against VIOTR in % (Viola tricolor [18]; 5 g/ha): 100%; Post-emergence action against VIOTR in % (Viola tricolor [18]; 20 g/ha): 100%; Pre-emergence action against SETVI (Setaria viridis [3]; 20 g/ha): 90%; Pre-emergence action against ABUTH (Abutilon theophrasti [6]; 20 g/ha): 90%; Post-emergence action against AMARE in % (Amaranthus retroflexus [19]; 5 g/ha): 100%; Post-emergence action against AMARE in % (Amaranthus retroflexus [19]; 20 g/ha): 100%; Post-emergence action against ALOMY (Alopecurus myosuroides [20]; 5 g/ha): 80%; Post-emergence action against ALOMY (Alopecurus myosuroides [20]; 20 g/ha): 90%; Post-emergence action against ECHCG in % (Echinochloa crus-galli [17]): 90%

# — patent publication US12599136B2, “Substituted isophthalic acid diamides and their use as herbicides” (Bayer Aktiengesellschaft, priority 2020, dated 2026)
